Values of other authors, collected in US6461603B2, “Water-soluble polymer conjugates of artelinic acid” (Shearwater Corporation, priority 2000, dated 2002).

water solubility (background statement) | solubility at physiological pH (physiological pH, higher pH required for desirable solubility) | Compound
low |  | C[C@@H]1CC[C@H]2[C@@H](C)C(OCc3ccc(C(=O)O)cc3)O[C@@H]3O[C@]4(C)CC[C@@H]1[C@]32OO4 (some centres unmarked) [artelinic acid]
 | not highly soluble | C[C@H]1[C@@H](OCc2ccc(C(=O)O)cc2)O[C@@H]2O[C@]3(C)CC[C@H]4[C@H](C)CC[C@@H]1[C@@]24OO3 [sodium artelinate]
